Assay results from ChEMBL document CHEMBL3886760, “Cyclic amine substituted heterocyclic CETP inhibitors” (2016).

Target: T1, Cholesteryl ester transfer protein (Homo sapiens, UniProt P11597)
T1 sequence (P11597 whole entry): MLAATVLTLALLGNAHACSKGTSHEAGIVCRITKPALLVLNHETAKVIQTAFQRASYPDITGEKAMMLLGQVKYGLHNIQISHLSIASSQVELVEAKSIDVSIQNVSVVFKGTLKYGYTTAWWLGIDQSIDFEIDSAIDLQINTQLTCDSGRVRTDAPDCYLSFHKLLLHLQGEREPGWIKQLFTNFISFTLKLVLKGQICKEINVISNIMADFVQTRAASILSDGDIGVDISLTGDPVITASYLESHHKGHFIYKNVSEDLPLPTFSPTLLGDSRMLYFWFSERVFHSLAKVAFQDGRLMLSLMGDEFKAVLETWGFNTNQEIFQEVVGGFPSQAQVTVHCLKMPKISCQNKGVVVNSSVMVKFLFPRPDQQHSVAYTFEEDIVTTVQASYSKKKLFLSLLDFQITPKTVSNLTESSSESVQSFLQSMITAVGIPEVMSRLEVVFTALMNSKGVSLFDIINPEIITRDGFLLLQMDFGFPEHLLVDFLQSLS
Experiment: Scintillation Proximity Assay (SPA): First, low density lipoprotein (LDL) (Meridian) was biotinylated by incubating LDL with biotin for 1 hour on ice, after which it was dialyzed to remove free biotin. Then compounds at varying concentrations were incubated with 15 nM CETP (reagent production group, In Vitro Pharmacology, MRL Rahway) and 50 ug/ml of the biotinylated LDL in 50 mM HEPES, 150 mM NaCl, pH 7.4, for 1 hour at 37° C. The reaction was started by adding 3H-cholesterol ester high density lipoprotein (HDL) (American Radiochemicals Corp) at a concentration of 0.6 nM. The reaction proceeded for 2 hours at 37° C., after which time it was quenched by the addition of 12% acetic acid. PVT streptavadin-coated scintillation proximity beads, which had been brought to room temperature, were then added at a concentration of 4 mg/ml. The assay was then mixed and counted after one half hour in a Microbeta plate reader.

IC50: 38 nM
Structure (SMILES): COc1ncc(Cl)cc1-c1cnc(N2CC(F)C2)nc1CN1C(=O)O[C@H](c2cc(C(F)(F)F)cc(C(F)(F)F)c2)[C@@H]1C
